Test results as given in patent US20040209318A1, “Reagents and methods for the detection and quantification of vancomycin in bilogical fluids” (priority 1995, published 2004).
One block for each substance: values may come before it.

Target: anti-vancomycin Fab fragment
Experiment: BIAcore solution competition, equilibrium dissociation constant
Assay type: binding, mouse
Conditions: in solution, 20 nM Fab fragment; read-out: Equilibrium Dissociation Constant (KD)
Experimental: Biosensor surfaces were regenerated after each injection with successive 1 minute pulses of 6 M, 6M, and 1.5 M guanidine hydrochloride. Initial rates of binding of anti-vancomycin Fab fragment to the biosensor surface were measured over a 15 second window beginning 20 seconds postinjection. Data was evaluated by non-linear regression analysis using the solution affinity model built into BIAevaluation 3.0 software (BIAcore, Inc).
The binding affinities of several vancomycin analogs and tracers for anti-vancomycin Fab fragment were determined from solution competition experiments carried out on a BIAcore 2000. Initially, known concentrations of anti-vancomycin Fab fragment (0-22 nM) were injected over the aminoalkyl vancomycin biosensor surface. The initial rate of binding for each anti-vancomycin Fab fragment concentration was obtained by averaging the observed binding rate over a […] window beginning 20 seconds post injection. Data from the first 20 seconds of each sensorgram were omitted due to sample dispersion effects at the start of injections. A plot of initial binding rate versus concentration of anti-vancomycin Fab fragment was fit using a 4-parameter logistic (general model in BIAevaluation 3.0) providing a standard curve. […] A fixed concentration of anti-vancomycin Fab fragment (20 nM) was then mixed with twelve concentrations of each vancomycin analog or tracer and allowed to reach equilibrium. The equilibrium mixtures were individually injected over the aminoalkyl vancomycin biosensor surface, and the concentration of free anti-vancomycin Fab fragment remaining was quantitated by determination of the initial rate of binding to the biosensor surface as described above. A plot of free anti-vancomycin Fab fragment versus total concentration of added analog or tracer provides a competition curve. […] The data points represent the experimentally determined concentrations of free anti-vancomycin Fab fragment in equilibrium solutions at a given concentration of soluble analog or tracer. The curves represent the best nonlinear fit of the data using equation 1 (solution affinity model in BIAevaluation software) below: [formula]
where Fabτ is the concentration of free anti-vancomycin Fab fragment in equilibrium solutions, Fabτ is the total concentration of anti-vancomycin Fab fragment in solution (20 nM), A is the total concentration of added vancomycin analog or tracer, and KD is the equilibrium dissociation constant for the binding of the vancomycin analog or tracer to anti-vancomycin Fab fragment in solution.

Substance: Crystalline degradation product (CDP) [compound 10]
Kd: 0.488 ± 0.034 µM

Substance: N-acetylvancosaminylvancomycin [compound 7]
Kd: ≤ 0.0002 µM

Substance: aglucovancomycin [compound 6]
Kd: 42 µM

Second part, the substance after the results:

Kd: ≥ 50 µM
Substance: AglucoCDP [compound 11]

Kd: 6 µM
Substance: Ring-2 dechloro CDP [compound 12]

Kd: 0.087 ± 0.004 µM
Substance: Ring-2 dechlorovancomycin [compound 8]
